Laboratory results as given in patent US20170270277A1, “METHOD FOR SUPERVISING CONSUMPTION OF A MEDICAL FOOD FOR PREVENTION AND/OR MANAGEMENT OF A DISEASE OR CONDITION” (Photonz Corporation Ltd., priority 2012, published 2017).

Assay: Laboratory test of the patient's serum lipids after consumption of the medical food, change from baseline (Example 4)
Assay type: in vivo
Details: 'one or more of'
Text: “Blood data” as used herein includes levels of cholesterol, diglycerides and triglycerides amongst other parameters described herein. Blood data parameters can be measured in accordance with any clinically acceptable methodology. For example, triglycerides, total cholesterol, HDL-C and fasting blood sugar can be sampled from serum and analyzed using standard photometry techniques. VLDL-TG, LDL-C and VLDL-C can be calculated or determined using serum lipoprotein fractionation by preparative ultracentrifugation and subsequent quantitative analysis by refractometry or by analytic ultracentrifugal methodology. Apo AI, Apo B and hsCRP can be determined from serum using standard nephelometry techniques. Lipoprotein (a) can be determined from serum using standard turbidimetric immunoassay techniques. LDL particle number and particle size can be determined using nuclear magnetic resonance (NMR) spectrometry. Remnants lipoproteins and LDL-phospholipase A2 can be determined from EDTA plasma or serum and serum, respectively, using enzymatic immunoseparation techniques. Oxidized LDL, intercellular adhesion molecule-1 and interleukin-6 levels can be determined from serum using standard enzyme immunoassay techniques. These techniques are described in detail in standard textbooks, for example Tietz Fundamentals of Clinical Chemistry, 6th Ed. (Burtis, Ashwood and Borter Eds.), WB Saunders Company. In one embodiment, subjects fast for up to 12 hours prior to blood sample collection, for example about 10 hours.
This is a further example of one particular embodiment of practicing the invention. The results presented in this example are expected to be generated.
A patient is concerned about maintaining good cardiovascular health and advises a medical professional of this desire. The patient may be risk of developing or be diagnosed of having mixed dyslipidemia, hyperlipidemia and hypertriglyceridemia.
The medical professional sets up a laboratory in accordance with clinically acceptable methodologies to determine the patient's serum lipids including triglycerides, total cholesterol, HDL cholesterol, LDL cholesterol and fasting blood sugar. The patient may have one or more of: a baseline triglyceride level of about 300 mg/dl to about 1500 mg/dl; baseline non-HDL-C value of about 200 mg/dl to about 400 mg/dl; baseline total cholesterol value of about 250 mg/dl to about 400 mg/dl; baseline vLDL-C value of about 140 mg/dl to about 200 mg/dl; baseline HDL-C value of about 10 to about 60 mg/dl; and/or baseline LDL-C value of about 50 to about 300 mg/dl.
Additional patient registration data including age, sex, weight, relative level of fitness and health, history of illness, family history of illness, and current prescribed pharmaceutical medications and medical foods and dosages, are also accumulated as a data set on a back end computer. The medical professional queries the backend computer about the patient's laboratory data and lifestyle metrics and this back end computer calculates the dose of the EPA-ethyl ester to be provided to the patient as a medical food for a certain period of time based on the analyzed metrics in order for that patient's serum lipids to be returned to normal levels with a low risk of cardiovascular disease. […]
After consumption of the medical food for the specified period of time, the patient receives another laboratory test of their serum lipids and the data is analyzed for changes from the original baseline on the back end computer. […]

[1] = same patient and medical food dosing

## CC/C=C\C/C=C\C/C=C\C/C=C\C/C=C\CCCC(=O)OCC [EPA-ethyl ester, eicosapentaenoyl-ethyl ester]
Patient at risk of or with mixed dyslipidemia, hyperlipidemia, hypertriglyceridemia, 1 to 4 g of at least 60% pure EPA-ethyl ester 1 to 4 times per day
  triglyceride levels compared to baseline: reduced
[1]
  Apo B levels compared to baseline: reduced
  HDL-C levels compared to baseline: increased
  non-HDL-C levels compared to baseline: a reduction
  vLDL levels compared to baseline: a reduction
